Columns and labels:
CD4+CFSElo cells = assay: T cell receptor V alpha gene sequencing of CD4+CFSElo cells after proliferation to peptide; format: cell-based, human; conditions: three HLA matched T1D subjects with two non-β57Asp DQ alleles; CD4+CFSElo cells vs baseline
Experimental: Three individuals had TCR α-chain sequencing performed on sorted CD4 T cells before peptide proliferation and then on CD4+CFSElo cells after one week of proliferation. Total RNA was directly extracted from sorted cells using the RNeasy Mini kit (Qiagen) for cells before proliferation and the PicoPure RNA isolation kit (Life Technologies) for those after proliferation. […] To amplify TCR-α and TCR-β chains, a two-step PCR was performed. PCR reactions were generated for α- and β-chains separately using the Universal Primer A Mix supplied from the SMARTer RACE cDNA Amplification Kit along with a primer designed on the constant region of α-[…] NO:22)) and β-chains […] NO:23)), respectively. The first PCR products were further amplified with nested primers ligated with the 454 adaptor sequences containing a multiple identifier sequence: forward primer for both α- and β-chains ([NT] NO:24)), reverse primer for α-chains […] NO:25)-multiple identifier sequence-[…] NO:26), and reverse primer for β-chains […] […] All sequences obtained from 454 sequencing were analyzed by the […]-QUEST algorithm (45) to identify Vgene, Jgene, and junction sequences, followed by additional analysis by in-house software to determine frequencies of Vgene usages by individual TCR sequences. Vgene frequencies determined by mean values from the 12 PCR reactions were analyzed for individual samples. […]

[1] = tested on: B:9-23 specific CD4 T cells; conditions: presented by IAg7; cited from earlier work

Sequence: SHLVEALYLVCGEEG [B: 9-23 B22E, B:9-23 mimotope; B22 arginine to glutamic acid]
- TCR V gene usage of alpha chains before and after proliferation (CD4+CFSElo cells): skewing with several V alpha genes and one V delta gene
- stimulates B:9-23 specific CD4 T cells better than the wild type peptide [1]: about 100 fold

From patent US10363288B2, “Insulin mimotopes and methods of using the same” (THE REGENTS OF THE UNIVERSITY OF COLORADO, a body corporate, priority 2015, dated 2019)
